Assay results from paper PMC11018795, “The regulatory relationship between NAMPT and PD-L1 in cancer and identification of a dual-targeting inhibitor” (EMBO Molecular Medicine, 2024).
Several values for one entry are separate records, joined by “and”; a condition that tells them apart may be missing. Equal entries are not always repeated.

Assays:
[1] = test system: NAD+ content of A2780 cells; test: NAD+ assay in A2780 cells; format: cell-based, human; settings: for Relative NAD+: 0 nM = 100
Protocol: NAD^+ assays were performed to quantify the total NAD^+ content. NAD^+ assay was performed using the NAD/NADH Assay Kit (ab65348; Abcam) according to the manufacturer’s recommended protocol.

HepG2 cells = test: MTT assay 48 h, HepG2; format: cell-based, human
Protocol: (§1) Cells (5 × 10^3/well) were seeded into a 96-well plate and cultured at 37 °C in a 5% CO2 incubator. […] At the final time point, 10 μl MTT solution (5 mg/ml, Sigma, Burlington, MA, USA) was added to each well and incubated for an additional 4 h at 37 °C in a 5% CO2 incubator. Then,100 μl of DMSO was added to each well and mixed thoroughly. Optical density was measured at 492 nm using a microplate reader (Molecular Devices, San Jose, CA, USA).

MKN74 cells = test: MTT assay 48 h, MKN74; format: cell-based, human
Protocol: as §1

CT-26 cells = test: MTT assay 48 h, CT-26; format: cell-based, mouse
Protocol: as §1

LLC Vector cells = test: Cell viability 72 h, LLC Vector (Fig 4C); format: cell-based, mouse
Protocol: as §1, with “In vitro cell viability was determined using a Cell Counting Kit-8 (MCE) assay. Cells (5 × 10^3/well) were seeded in 96-well culture plates. After 24 h, they were incubated with various concentrations of the test compounds for 48–72 h at 37 °C in a 5% CO2 incubator. Next, 10% of the CCK-8 solution was added to each well, and the plates were incubated for an additional 4 h at 37 °C. The optical density of each well was measured at 450 nm using a multimode plate reader (Molecular Devices, San Jose, CA, USA). Cells” for “Cells”

A2780 cells = test: Cell cycle analysis, A2780; format: cell-based, human
Excerpt: Supplement 44321_2024_51_MOESM5_ESM.zip/Fig4-D.xlsx, sheet "Sheet1" | column: G0/G1; S; G2/M

[2] = test system: LLC sh NAMPT cells co-cultured with T cells; test: T cell killing assay (colony formation), LLC sh NAMPT; format: cell-based; settings: Mus musculus, 72 h, 100 nM, three days, read-out: inhibition rate of colony formation number
Protocol: To acquire activated T cells, human peripheral blood mononuclear cells (PBMC; LTS1077, Yanjin Biological) were cultured in CTSTM AIIM VTM SFM (A3021002; Gibco) with ImmunoCult Human CD3/CD28/CD2 T-cell activator (25 μL/mL; […] Technologies, Cat#10970) for 48 h according to the manufacturer's protocol. The experiments were performed using mouse anti-CD3 antibody (1 μg/mL; Thermo Scientific, 16-0032-82) and anti-CD28 antibody(5 μg/mL; Thermo Scientific, 16-0281-82). […] Different proportions of cancer cells and activated T cells were utilized according to the purpose of each experiment. The T-cell proliferation assay was 1:3; the T-cell killing assay was 1:10; T cells and cell debris were removed by PBS washing, and the living cancer cells were then quantified by a spectrometer at OD (570 nm) followed by crystal violet staining. page 28: Fig 8: Effects of LZFPN-90 and NMN on tumor immune microenvironment. […] (C) T cells were co-cultured with LLC cells, and treated with LZFPN-90 (100 nM), and NMN (1 mM) to detect the cell proliferation by T cell killing assay. Data are presented as mean ± SEM; *P < 0.05, **P < 0.01, ***P < 0.001 compared with control. n.s., not significant. (1 picture or pasted object on this page, not shown here)

NAMPT [3] = target: T1, NAMPT (Homo sapiens, UniProt P43490); test: In vitro NAMPT activity assay (Abcam kit); format: biochemical; set-up: purchased Abcam ab221819
Target sequence in this assay (P43490 whole entry, species assumed): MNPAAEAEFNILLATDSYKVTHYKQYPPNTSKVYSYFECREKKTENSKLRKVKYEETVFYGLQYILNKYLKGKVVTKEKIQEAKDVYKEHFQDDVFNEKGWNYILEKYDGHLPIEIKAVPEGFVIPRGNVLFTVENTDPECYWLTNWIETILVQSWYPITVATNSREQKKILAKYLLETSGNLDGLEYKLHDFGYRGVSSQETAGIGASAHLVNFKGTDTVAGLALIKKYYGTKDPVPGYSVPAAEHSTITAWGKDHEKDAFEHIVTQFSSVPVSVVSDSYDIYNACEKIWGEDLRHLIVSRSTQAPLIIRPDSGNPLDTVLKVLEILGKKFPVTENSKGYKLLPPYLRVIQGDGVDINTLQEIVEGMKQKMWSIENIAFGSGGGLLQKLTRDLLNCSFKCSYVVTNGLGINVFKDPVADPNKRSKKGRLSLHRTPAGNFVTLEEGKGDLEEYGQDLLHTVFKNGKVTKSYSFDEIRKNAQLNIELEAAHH

NAMPT [4] = target: T1, NAMPT; test: Cellular thermal shift assay (CETSA), NAMPT, A2780 cells; format: binding; set-up: endogenous in cells; host or cells: A2780; settings: for Relative band intensity (NAMPT): LZFPN-90 20 nM
Protocol: The cells were resuspended in 1× PBS supplemented with protease inhibitors (Roche) and then divided into strip tubes for 30 min. The tubes were centrifuged at 15,000× g at 4 °C for 15 min. After centrifugation, the supernatant was divided into DMSO and LZFPN-90 (20 nM) groups, and incubated at room temperature for 30 min. According to standard procedures (38 °C, 42 °C, 46 °C, 50 °C, 54 °C, 58 °C, 62 °C, 66 °C), each temperature group was heated for 3 min, incubated at room temperature for 3 min. Then centrifuged at 20,000× g for 25 min, the supernatant was collected, 1× loading buffer was added, the mixture was heated in a metal bath at 95 °C for 10 min, and the amount of non-denatured protein per sample was quantified by western blotting.
Target sequence in this assay (P43490 whole entry): as the sequence (P43490 whole entry, species assumed) above

`CCN(CC)CCCOc1cccc(-c2cccc3c2CCN3C(=O)c2ncc(CNC(=NC#N)Nc3ccncc3)s2)c1` [LZFPN-90] was tested, and the “effect on NAD+ content” value ([1]; A2780 cells) was “concentration-dependent reduction in the NAD^+ content”, the “Relative NAD+” value ([1]; LZFPN-90 1.25 nM) was 35.1891 and 32.3761 and the “Relative NAD+” value ([1]; LZFPN-90 2.5 nM) was 12.5247 and 11.2894. The “Relative NAD+” value ([1]; LZFPN-90 5 nM) was 8.877 and 6.867, the “Relative NAD+” value ([1]; LZFPN-90 10 nM) was 2.626 and 2.637 and the “Relative inhibition (敏感性)” value (HepG2 cells) was 0.58. For the same compound, the “Relative inhibition (敏感性)” value (MKN74 cells) was 0.79, the “Relative inhibition (敏感性)” value (CT-26 cells) was 0.17 and the Relative viability (LLC Vector cells; LZ90 0.25 (nM), 0 = 100) was 89.7901 and 87.9705 and 96.555. The Relative viability (LLC Vector cells; LZ90 1) was 87.3413 and 95.1235 and 101.277, the Relative viability (LLC Vector cells; LZ90 4) was 85.618 and 92.9893 and 92.8571 and the Relative viability (LLC Vector cells; LZ90 16) was 83.9984 and 83.5338 and 75.7769. For the same compound, the Relative viability (LLC Vector cells; LZ90 64) was 79.4506 and 87.9576 and 68.4293, the Relative viability (LLC Vector cells; LZ90 256) was 70.355 and 68.0766 and 71.9586 and the “Cell cycle G0/G1” value (A2780 cells; LZ90 20) was 36.54 and 37.05 and 37.41. The “Cell cycle G2/M” value (A2780 cells; LZ90 20) was 35.48 and 38.97 and 35.02, the “Cell cycle S” value (A2780 cells; LZ90 20) was 24.02 and 27.3 and 26.67 and the “Cell cycle G0/G1” value (A2780 cells; LZ90 40) was 46.76 and 45.07. The “Cell cycle G2/M” value (A2780 cells; LZ90 40) was 35.5 and 29.25 and 33.56, the “Cell cycle S” value (A2780 cells; LZ90 40) was 23.4 and 20.94 and 19.12 and the “Cell cycle G0/G1” value (A2780 cells; LZ90 60) was 32.3 and 44.46. The “Cell cycle G2/M” value (A2780 cells; LZ90 60) was 27.02 and 27.05, the “Cell cycle S” value (A2780 cells; LZ90 60) was 39.91 and 27.43 and the inhibition at 0.1 µM [2] was 26.8%. The IC50 (NAMPT [3]) was 28 nM, the “mode of NAMPT inhibition” value (NAMPT [3]; concluded from NMN reversal of NAD+ reduction) was “NAMPT competitive inhibitor” and the “thermal stability of NAMPT” value (NAMPT [4]; LZFPN-90 20 nM vs blank group) was “the stability of NAMPT and PD-L1 increased”. For the same compound, the “Relative band intensity (NAMPT)” value (NAMPT [4]; 38 ℃) was 1.21 and 1.06, the “Relative band intensity (NAMPT)” value (NAMPT [4]; 42 ℃) was 1.16 and 1.1 and the “Relative band intensity (NAMPT)” value (NAMPT [4]; 46 ℃) was 1.06 and 1.08. For the same compound, the “Relative band intensity (NAMPT)” value (NAMPT [4]; 50 ℃) was 1.08 and 1.02, the “Relative band intensity (NAMPT)” value (NAMPT [4]; 54 ℃) was 1.25 and 1.19 and the “Relative band intensity (NAMPT)” value (NAMPT [4]; 58 ℃) was 1.21 and 1.16. For the same compound, the “Relative band intensity (NAMPT)” value (NAMPT [4]; 62 ℃) was 1.18 and 1.13 and the “Relative band intensity (NAMPT)” value (NAMPT [4]; 66 ℃) was 0.52 and 0.48.
